The values that follow come from patent US20220016080A1, “COMPOUNDS THAT SELECTIVELY AND EFFECTIVELY INHIBIT HAKAI-MEDIATED UBIQUITINATION, AS ANTI-CANCER DRUGS” (FUNDACIÓN PROFESOR NOVOA SANTOS, priority 2018, published 2022).

Each structure is given as a SMILES string.

One test has as its system renal cancer ACHN cells. The test can be described thus: BrdU proliferation assay, ACHN. Format: cell-based, human. The following applies: 48 h. Here is the method:
(§1) For BrdU assays, 1×10^4 of indicated cells were plated per well into a 96-well plate. After 24 h, cells were treated with the indicated inhibitors for 48 h. Three independent experiments were plated with six replicates per each condition. Cells were treated with […] BrdU for 2 h. BrdU incorporation into newly synthesized DNA was measured using a cell proliferation colorimetric immunoassay kit according to the manufacturer's instructions (Roche, Switzerland). Results are expressed as mean±S.D. Results are represented as percentage of positive cells (mean±S.D) of three independent experiments.

In test [1] the target is T1, E3 ubiquitin-ligase Hakai (Mus musculus, UniProt Q9JIY2).
T1 construct: expressed in transfected cells; host or cells: HEK293T (293) cells, co-transfected with v-Src and HA-ubiquitin, and in A3 also with myc-E-cadherin
T1 sequence (Q9JIY2 1-491): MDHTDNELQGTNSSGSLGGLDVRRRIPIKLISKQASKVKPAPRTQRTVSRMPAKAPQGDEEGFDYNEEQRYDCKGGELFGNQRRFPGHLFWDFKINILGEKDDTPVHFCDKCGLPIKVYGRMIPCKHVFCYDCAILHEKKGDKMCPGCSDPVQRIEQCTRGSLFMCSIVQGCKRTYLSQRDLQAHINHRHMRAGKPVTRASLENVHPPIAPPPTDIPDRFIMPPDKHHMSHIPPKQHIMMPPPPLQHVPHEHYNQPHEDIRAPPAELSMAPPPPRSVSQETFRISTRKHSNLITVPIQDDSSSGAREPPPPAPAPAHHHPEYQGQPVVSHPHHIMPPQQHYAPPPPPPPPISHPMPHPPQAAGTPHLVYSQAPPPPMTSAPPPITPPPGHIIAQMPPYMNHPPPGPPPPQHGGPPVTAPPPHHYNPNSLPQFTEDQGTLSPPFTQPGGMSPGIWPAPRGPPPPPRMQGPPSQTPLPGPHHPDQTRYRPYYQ
The test can be described thus: Hakai-dependent ubiquitination of the E-cadherin complex (immunoprecipitation, 293T cells). The following applies: 293T cells transfected with Flag-Hakai, myc-E-cadherin, v-Src, HA-ubiquitin; IP with anti-E-cadherin. Format: cell-based. Here is the method:
For immunoprecipitation experiments, 293 cells were transfected with 3 μg Src, 4 μg Flag-Hakai, and 2 μg HA-ubiquitin and 3 μg E-cadherin with Lipofectamin 2000 (Invitrogen, UK). 24 h after transfection, cells were lysed for 20 min in 1 ml of 1% Triton X-100 lysis buffer (20 mM Tris-HCl pH 7.5, 150 mM NaCl and 1% Triton X-100) containing 10 μg/ml leupeptin, 10 μg/ml aprotinin and 1 mM phenylmethanesulphonyl fluoride (PMSF), supplemented with 10 mM N-ethylmaleimide and 2.5 mM sodium orthovanadate. After centrifugation at 18.000 g for 10 min, the supernatants were immunoprecipitated for 2 h with 2 μg of anti-E-cadherin antibody bound to 60 μl of protein G PLUS-Agarose beads, followed by SDS-polyacrylamide gel electrophoresis (PAGE) and western blotting with the indicated antibodies as previously reported.

Test [2] concerns Hakai-MDCK cell lines (clone 4 and clone 11). Kind of test: MTT cell viability assay, Hakai-MDCK. In kind it is cell-based. The following applies: both clones of Hakai-MDCK compared to MDCK; 72 h. The protocol: For cytotoxicity assays, 1×10^4 cells were seeded per well into a 96-well plate. After 24 h cells were treated with the indicated inhibitors for 72 h and a MTT colorimetric cell viability assay was performed following manufacturer's instructions (Sigma Aldrich, St Louis, Mo.). Absorbance was measured at 570 and 630 nm using a Multiskan Plus Reader (Nanoquant Infinite M200 Tecan Trading AG, Switzerland). Dose-response curves were designed with Graph Pad Prism Software and the half-maximal inhibitory concentration (IC50) values were calculated. Represented data are the mean±SEM of at least three independent experiments with six replicates per condition.

Test [3] has as its system non-transformed epithelial MDCK cells. The test can be described thus: BrdU proliferation assay, MDCK. Format: cell-based. The following applies: 48 h. The protocol:
as §1

In test [4] the test system is MDCK non-transformed cells. Kind of test: Soft agar-colony formation assay, MDCK. Format: cell-based. To be noted: 21 days. Here is the method:
Soft agar-colony formation assay was performed on 12-well plates in triplicates at a density of 5×10^3 MDCK and MDCK-Hakai cells/well, or 12×10^3 HT29 cells/well. Cells were seeded in medium with 0.5% low-melting agarose over a layer with 0.75% low-melting agarose (Lonza Rockland, Me., USA). Cells were treated with the indicated inhibitors and DMSO was used as vehicle. Treatment was refreshed every 3 days and, after 21 days for MDCK and MDCK-Hakai cells or 28 days for HT29 cells, number of colonies were quantified. Quantification of five randomly-selected fields of each condition was photographed with a Nikon Eclipse-TI microscope (objective 4×). Experiments were conducted with three triplicates and were repeated three times. Data are represented as mean±SD.

For `O=C(O)c1ccc(-n2nnnc2SCC(=O)c2ccc([N+](=O)[O-])cc2)cc1` [Hakin-1, 4-(5-{[2-(4-nitrophenyl)-2-oxoethyl]thiol}-1H-tetrazol-1-yl)benzoic acid], the entries for the “cell proliferation (BrdU)” value (with renal cancer ACHN cells; in test [3]) were “inhibits cell proliferation” and “no effect was detected”, respectively. For the same compound, in test [1], the “Hakai-dependent ubiquitination of E-cadherin complex” value is “reduction of Hakai-dependent ubiquitination of E-cadherin complex”. In addition, the “sensitivity to treatment (cell viability, MTT)” value in test [2] is given as “more sensitive”. Also, the “colony formation (soft agar)” value in test [4] is “no colony formation was detected”.
